In US20220264876A1, “COMPOSITIONS AND METHODS FOR ENHANCING PLANT GROWTH” (BOYCE THOMPSON INSTITUTE FOR PLANT RESEARCH, INC., priority 2019, published 2022):

Key:
Format in all cases: in vivo
corn seeds = test: Corn seed pretreatment with ascr #18: germination/emergence and growth in soil
Procedure: FIGS. 8A-8B show the effect of ascr #18 on corn seed germination/emergence and growth. Corn seeds were pretreated 24 hours without (mock) or with different concentrations (10, 100 and 1000 nM) of ascr #18 before planting in soil. Seed germination/emergence from soil was measured after 4, 5, 6, 7, 8, 9, 10 and 11 days after planting (FIG. 8A). The height of the second node of the plants was measured 15 days after planting (FIG. 8B). Data are averages±s.d. (n≥12). *P≤0.05; two-tailed t-test. The effect of ascr #18 on corn seed germination/emergence and growth was also studied. Corn seeds were pretreated 24 hours without (mock) or with different concentrations (10, 100 and 1000 nM) of ascr #18 before planting in soil. Seed germination/emergence from soil was measured after 4, 5, 6, 7, 8, 9, 10 and 11 days after planting. […] The height of the second node of the plants was also measured 15 days after planting.

rice seeds = test: Rice seed pretreatment with ascr #18: germination/emergence and growth in soil
Procedure: FIGS. 1A-1D show the effect of ascr #18 on rice seed germination/emergence and growth. Rice seeds were pretreated 24 hours without (mock) or with different concentrations (10, 100 and 1000 nM) of ascr #18 before planting in soil. Seed germination/emergence from soil was measured after 7, 8, 9, 10 and 11 days after planting (FIG. 1A). The length of the plants was measured 15 days after planting (FIG. 1B) and 18 days after planting (FIG. 1C). Pictures were taken 15 days after planting (FIG. 1D). Data are averages±s.d. (n≥12). ***P≤0.0005; ****P≤0.00005; two-tailed t-test.
FIGS. 2A-2C show the effect of ascr #18 on rice seed germination/emergence and growth. Rice seeds were pretreated 24 hours without (mock) or with different concentrations (10, 100 and 1000 nM) of ascr #18 before planting in soil. Seed germination/emergence from soil was measured after 6, 7, 8, 9 and 10 days after planting (FIG. 2A). The length of the plants was measured 10, 12, 14, 15 and 18 days after planting (FIG. 2B). The fresh biomass of the plants was measured 18 days after planting (FIG. 2C). Data are averages±s.d. (n≥14). *P≤0.05; **P≤0.005; ***P≤0.0005; ****P≤0.00005; two-tailed t-test.
The effect of ascr #18 on rice seed germination/emergence and growth was tested. Briefly, rice seeds were pretreated 24 hours without (mock) or with different concentrations (10, 100 and 1000 nM) of ascr #18 before planting in soil. Seed germination/emergence from soil was measured after 7, 8, 9, 10 and 11 days after planting. […] The length of plants was also measured 15 days and 18 days after planting and pictures were taken at 15 days after planting.
Further studies of the effect of ascr #18 on rice seed germination/emergence and growth were performed. Rice seeds were pretreated 24 hours without (mock) or with different concentrations (10, 100 and 1000 nM) of ascr #18 before planting in soil. Seed germination/emergence from soil was measured after 6, 7, 8, 9 and 10 days after planting. […] The length of plants was also measured at 10, 12, 14, 15 and 18 days after planting. […] The fresh biomass of plants was also measured 18 days after planting.

Arabidopsis seeds = test: Arabidopsis seed pretreatment with ascr #18: germination, growth and flowering
Procedure: Arabidopsis seeds were pretreated 24 hours without (mock) or with 1 μM ascr #18 before planting in soil. FIG. 5A provides a graph of the number of plants at different stages of germination counted 3 days after planting. Stages of germination; 0=no germination; 1=about to germinate; 2=germinated and two-leaf stage; 3=germinated and have expanded leaves (n=60). FIG. 5B provides graphs of the surface area of germinated plants measured by taking pictures and counting pixels using Fiji software and then normalizing by the total area for each plant (n=15 pots with each pot containing 4 plants). FIG. 5C provides a graph of the percent of plants flowering at day 25 after planting in soil. FIG. 5D provides a graph of the fresh weight of above-ground (excluding root) part of the plants measured at day 25 after planting in soil. *P=0.03; **P≤0.01; ***P≤0.001; ****P≤0.0001; two-tailed t-test. The effects of ascr #18 on Arabidopsis were also studied. Arabidopsis seeds were pretreated 24 hours without (mock) or with 1 μM ascr #18 for ascr #18 before planting in soil. The number of plants at different stages of germination were counted 3 days after planting. […] Additionally, the surface area of germinated plants was measured by taking pictures and counting pixels using Fiji software. The data was then normalized by the total area for each plant. […] The percentage of plants flowering at day 25 after planting in soil was also determined. […] The fresh weight of above-ground (excluding root) part of the plants was also measured 25 days after planting.

tomato seeds = test: Tomato seed pretreatment with ascr #18: germination/emergence and growth in soil
Procedure: Tomato seeds were pretreated 24 hours without (mock) or with different concentrations (1, 10, 100, 1000 and 10000 nM) of ascr #18 before planting on soil. The length of the plants was measured 12 days after planting. **P≤0.002; ****P≤0.00005; two-tailed t-test. FIGS. 4A-4F show the effect of ascr #18 on tomato seed germination/emergence and growth. Tomato seeds were pretreated 24 hours without (mock) or with different concentrations (10, 100, and 1000 nM) of ascr #18 before planting in soil. Seed germination/emergence from soil was measured after 4, 5, 6 and 7 days after planting (FIG. 4A). The length of plants was measured 12 and 14 days after planting (FIG. 4B). Pictures were taken 14 days after planting (FIG. 4C). **P≤0.002; ****P≤0.00005; two-tailed t-test. FIGS. 4D and 4E provide graphs of the fresh weight of above-ground (excluding root) part of the plants measured at day 21 after planting in soil for tomato seeds pretreated without (mock) or with different concentrations (0.1 and 10 μM) of ascr #18 for 24 hours (FIG. 4D) or 72 hours (FIG. 4E) before planting in soil. The length of the roots of the plants was also measured 21 days after planting (FIG. 4F). The effect of ascr #18 on was also determined on tomato plant growth. Tomato seeds were pretreated 24 hours without (mock) or with different concentrations (1, 10, 100, 1000 and 10000 nM) of ascr #18 before planting on soil. The length of the plants was measured 12 days after planting. […] Further studies on the effect of ascr #18 on tomato seed germination/emergence and growth. Tomato seeds were pretreated 24 hours without (mock) or with different concentrations (10, 100, and 1000 nM) of ascr #18 before planting in soil. Seed germination/emergence from soil was measured after 4, 5, 6 and 7 days after planting. […] The length of the plants was also measured 12 and 14 days after planting and pictures were taken 14 days after planting. […] In further experiments, tomato seeds were pretreated 24 or 72 hours without (mock) or with different concentrations (0.1 and 10 μM) of ascr #18 before planting in soil. More specifically, the tomato seeds were submerged in aqueous solutions of ascaroside for 24 hours or 72 hours directly before planting. Alternatively, seeds, (e.g., tomato seeds) can be coated with a solution of different concentrations of ascaroside containing polymeric binders commonly used for seed coating. Following treatment, the seeds can be dried and stored (e.g., for 2 weeks) before planting. The fresh weight of above-ground (excluding root) part of the plants was measured 21 days after planting. […] The length of the roots of the plants was also measured 21 days after planting.

wheat seeds = test: Wheat seed pretreatment with ascr #18: germination/emergence and growth in soil; settings: wheat seeds pretreated 24 hours with 10, 100, 1000 nM vs mock; 10 days after planting (FIG. 9B)
Procedure: FIGS. 9A-9B show the effect of ascr #18 on wheat seed germination/emergence and growth. Wheat seeds were pretreated 24 hours without (mock) or with different concentrations (10, 100 and 1000 nM) of ascr #18 before planting in soil. Seed germination/emergence from soil was measured after 2, 3, 4, 5, 6, 7, 8, 9 and 10 days after planting (FIG. 9A). The height of the second node of the plants was measured […] after planting (FIG. 9B). Data are averages±s.d. (n≥12). *P≤0.05; two-tailed t-test. The effect of ascr #18 on wheat seed germination/emergence and growth was also studied. Wheat seeds were pretreated 24 hours without (mock) or with different concentrations (10, 100 and 1000 nM) of ascr #18 before planting in soil. Seed germination/emergence from soil was measured after 2, 3, 4, 5, 6, 7, 8, 9 and 10 days after planting (FIG. 9A). The height of the second node of the plants was also measured 10 days after planting.

potato plants = test: Spray treatment of four-week old potato plants with ascr #18: growth and tuber yield
Procedure: FIGS. 6A-6B show the effects of ascr #18 on potato plants. Four-week old potato plants were pretreated without (mock) or with ascr #18 (10 nM). Potato tubers were harvested from mock and pre-treated plants. FIG. 6A provides images of tubers from one representative plant that was mock treated and one representative plant that was treated with ascr #18. FIG. 6B provides a graph of the biomass of the above-ground (excluding root) part of the potato plants. FIGS. 7A-7E show the effect of ascr #18 on potato plant growth and yield. Four-week old potato plants were sprayed once with buffer only (mock) or 10 nM ascr #18 before harvesting two weeks later. […] Potato root system (7C) and tubers (7D) harvest from treated and mock plants are presented. Each pile of tubers was from one plant. FIG. 7E presents the tuber biomass of the mock and treated plants at harvest. The effects of ascr #18 on potato were also studied. Four week old potato plants were pretreated (sprat treatment) without (mock) or with ascr #18 (10 nM). Potato tubers were harvested from mock and pre-treated plants. Each pile of tubers in FIG. 6A were from one plant. […] The above-ground (excluding root) part of the potato plants was also measured.

In the case of `CC1O[C@@H](O[C@@H](C)CCCCCCCCC(=O)O)C(O)C[C@H]1O` (stereo in doubt) [ascr #18, (10R)-(3′R,5′R-dihydroxy-6′S-methyl-(2H)-tetrahydropyran-2-yloxy)-undecanoic Acid], the “Seed germination/emergence from soil” value (corn seeds; corn seeds pretreated 24 hours with 10, 100, 1000 nM vs mock, 4-11 days after planting (FIG. 8A)) is reported as “faster germination/emergence rate”, the “Height of the second node of the plants” value (corn seeds; corn, 10, 100, 1000 nM vs mock, 15 days after planting (FIG. 8B)) is reported as “taller” and the “Seed germination/emergence from soil” value (rice seeds; rice seeds pretreated 24 hours with 10, 100, 1000 nM vs mock, 7-11 days after planting (FIG. 1A)) is reported as “faster germination/emergence rate”. For the same compound, the “Seed germination/emergence from soil” value (rice seeds; rice, further study, 10, 100, 1000 nM for 24 hours vs mock, 6-10 days after planting (FIG. 2A)) was “faster germination/emergence rate”, the Length of plants (rice seeds; rice, further study, 10, 100, 1000 nM, 10, 12, 14, 15 and 18 days after planting (FIG. 2B)) was “faster growth” and the “Fresh biomass of plants” value (rice seeds; rice, further study, 10, 100, 1000 nM, 18 days after planting (FIG. 2C)) was “greater biomass”. For the same compound, the Length of plants (rice seeds; rice, seed treatment 100 nM or 1000 nM vs untreated or 10 nM, 15 and 18 days after planting (FIGS. 1B-1D)) was “taller”, the “Number of plants at different stages of germination” value (Arabidopsis seeds; Arabidopsis seeds pretreated 24 hours with 1 μM vs mock, 3 days after planting (FIG. 5A)) was “faster germination/emergence rate” and the “Fresh weight of above-ground (excluding root) part of the plants” value (Arabidopsis seeds; Arabidopsis, 1 μM vs mock, 25 days after planting (FIG. 5D)) was “greater weight”. For the same compound, the “Percentage of plants flowering” value (Arabidopsis seeds; Arabidopsis, 1 μM vs mock, day 25 after planting in soil (FIG. 5C)) was “greater plant flowering”, the “Surface area of germinated plants” value (Arabidopsis seeds; Arabidopsis, 1 μM vs mock, pixel counting with Fiji software, normalized (FIG. 5B)) was “greater plant surface area” and the “Fresh weight of above-ground (excluding root) part of the plants” value (tomato seeds; tomato seeds pretreated 24 or 72 hours with 0.1 and 10 μM vs mock, 21 days after planting (FIGS. 4D-4E), particularly with longer pretreatment) was “greater weight”. For the same compound, the “Seed germination/emergence from soil” value (tomato seeds; tomato seeds pretreated 24 hours with 10, 100, 1000 nM vs mock, 4-7 days after planting (FIG. 4A)) was “faster germination/emergence rate”, the “Length of the roots of the plants” value (tomato seeds; tomato, 0.1 and 10 μM vs mock, 21 days after planting (FIG. 4F)) was “longer roots” and the “Length of the plants” value (tomato seeds; tomato, 10, 100, 1000 nM for 24 hours, 12 and 14 days after planting (FIGS. 4B-4C)) was “taller”. For the same compound, the “Length of the plants” value (tomato seeds; tomato, seed treatment 100 nM or 1000 nM vs untreated or 10 nM, 12 days after planting (FIG. 3)) was “taller”, the “Height of the second node of the plants” value (wheat seeds) was “taller” and the “Biomass of the potato plants (above-ground part, tubers)” value (potato plants; four-week old potato plants sprayed once with 10 nM vs mock, harvest two weeks later (FIG. 6B, FIGS. 7A-7E)) was “greater biomass”. For the same compound, the Potato tubers harvested (potato plants; four-week old potato plants sprayed with 10 nM vs mock (FIG. 6A)) was “significantly more potato tubers”.
